Measurements taken from US8952024B2, “Herbicidal pyrimidone derivatives” (E I du Pont de Nemours and Company, priority 2009, dated 2015).

Experiments:
Format in all cases: in vivo
rice (Oryza sativa) = test: Test B flooded paddy test; conditions: for Plant response rating, Flood, Rice: 250 g ai/ha, flooded paddy test, visual rating on 0 to 100 scale (0 no effect, 100 complete control) after 13 to 15 days; for Plant response rating, Rice: Flood (flooded paddy test), 13 to 15 days; for Rice plant response rating: Flood, 31 g ai/ha, scale 0 to 100 (0 no effect, 100 complete control)
How it was run: (§1)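 Seedlings reaching 2 leaves are flooded 3 cm deep; test material is delivered to that water, which stays at the same depth. Plants remain in a greenhouse 13–15 days and are then scored by eye versus controls from 0 to 100.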

[1] = test system: ducksalad (Heteranthera limosa); test: Test B flooded paddy test; conditions: for Plant response rating, Flood, Ducksalad: 250 g ai/ha, flooded paddy test, visual rating on 0 to 100 scale (0 no effect, 100 complete control) after 13 to 15 days; for Plant response rating, Ducksalad: Flood (flooded paddy test), 13 to 15 days; for Ducksalad plant response rating: Flood, 31 g ai/ha, scale 0 to 100 (0 no effect, 100 complete control)
How it was run: as §1

[2] = test system: barnyardgrass (Echinochloa crus-galli); test: Test B flooded paddy test; conditions: for Plant response rating, Flood, Barnyardgrass: 250 g ai/ha, flooded paddy test, visual rating on 0 to 100 scale (0 no effect, 100 complete control) after 13 to 15 days; for Plant response rating, Barnyardgrass: Flood (flooded paddy test), 13 to 15 days; for Barnyardgrass plant response rating: Flood, 31 g ai/ha, scale 0 to 100 (0 no effect, 100 complete control)
How it was run: as §1

[3] = test system: umbrella sedge (Cyperus difformis); test: Test B flooded paddy test; conditions: for Plant response rating, Flood, Sedge, Umbrella: 250 g ai/ha, flooded paddy test, visual rating on 0 to 100 scale (0 no effect, 100 complete control) after 13 to 15 days; for Plant response rating, Sedge, Umbrella: Flood (flooded paddy test), 13 to 15 days; for Sedge, Umbrella plant response rating: Flood, 31 g ai/ha, scale 0 to 100 (0 no effect, 100 complete control)
How it was run: as §1

[4] = test system: pigweed (Amaranthus retroflexus); test: Test A pre-/postemergence plant response; conditions: for Pigweed plant response rating: visual injury, 0 to 100 scale (0 no effect, 100 complete control), approx. ten days
From the text: (§2) Seeds of barnyardgrass (Echinochloa crus-galli), large crabgrass (Digitaria sanguinalis), giant foxtail (Setaria faberii), morningglory (Ipomoea spp.), pigweed (Amaranthus retroflexus), velvetleaf (Abutilon theophrasti), wheat (Triticum aestivum) and corn (Zea mays) were planted into a blend of loam soil and sand and treated preemergence with a directed soil spray using test chemicals formulated in a non-phytotoxic solvent mixture which included a surfactant. At the same time these species were also treated with postemergence applications of test compounds formulated in the same manner.
(§3) Plants ranged in height from two to ten cm and were in the one- to two-leaf stage for the postemergence treatment. Treated plants and untreated controls were maintained in a greenhouse for approximately ten days, after which time all treated plants were compared to untreated controls and visually evaluated for injury. Plant response ratings, summarized in Table A, are based on a 0 to 100 scale where 0 is no effect and 100 is complete control. A dash (-) response means no test result.

[5] = test system: morningglory (Ipomoea spp.); test: Test A pre-/postemergence plant response; conditions: for Morningglory plant response rating: visual injury, 0 to 100 scale (0 no effect, 100 complete control), approx. ten days
From the text: as §2, §3

[6] = test system: large crabgrass (Digitaria sanguinalis); test: Test A pre-/postemergence plant response; conditions: for Crabgrass, Large plant response rating: visual injury, 0 to 100 scale (0 no effect, 100 complete control), approx. ten days
From the text: as §2, §3

[7] = test system: giant foxtail (Setaria faberii); test: Test A pre-/postemergence plant response; conditions: for Foxtail, Giant plant response rating: visual injury, 0 to 100 scale (0 no effect, 100 complete control), approx. ten days
From the text: as §2, §3

corn (Zea mays) = test: Test A pre-/postemergence plant response; conditions: for Corn plant response rating: visual injury, 0 to 100 scale (0 no effect, 100 complete control), approx. ten days
From the text: as §2, §3

[8] = test system: wheat (Triticum aestivum); test: Test A pre-/postemergence plant response; conditions: for Wheat plant response rating: visual injury, 0 to 100 scale (0 no effect, 100 complete control), approx. ten days
From the text: as §2, §3

[9] = test system: barnyardgrass (Echinochloa crus-galli); test: Test A pre-/postemergence plant response; conditions: for Barnyardgrass plant response rating: visual injury, 0 to 100 scale (0 no effect, 100 complete control), approx. ten days
From the text: as §2, §3

[10] = test system: velvetleaf (Abutilon theophrasti); test: Test A pre-/postemergence plant response; conditions: for Velvetleaf plant response rating: visual injury, 0 to 100 scale (0 no effect, 100 complete control), approx. ten days
From the text: as §2, §3

[11] = 62 g ai/ha, scale of 0 to 100 where 0 is no effect and 100 is complete control
[12] = 125 g ai/ha, scale 0 to 100, 0 is no effect, 100 is complete control
[13] = Postemergence, 125 g ai/ha, 0 to 100 scale where 0 is no effect and 100 is complete control
[14] = Preemergence, 125 g ai/ha, 0 to 100 scale, 0 = no effect, 100 = complete control
[15] = Preemergence, 500 g ai/ha, 0 to 100 scale, 0 = no effect, 100 = complete control

CCc1ccc(-n2c(-c3cc(F)cc(F)c3)ncc(C(=O)C3=C(O)CCCC3=O)c2=O)cc1 [Compound 158]
Plant response rating, Flood, Rice (rice (Oryza sativa)): 85 | Plant response rating, Rice (rice (Oryza sativa); [11]): 30 | Plant response rating, Rice (rice (Oryza sativa); [12]): 40 | Rice plant response rating (rice (Oryza sativa)): 20 | Plant response rating, Flood, Ducksalad [1]: 100 | Plant response rating, Ducksalad [1, 11]: 75 | Plant response rating, Ducksalad [1, 12]: 100 | Ducksalad plant response rating [1]: 50 | Plant response rating, Flood, Barnyardgrass [2]: 60 | Plant response rating, Barnyardgrass [2, 11]: 20 | Plant response rating, Barnyardgrass [2, 12]: 20 | Barnyardgrass plant response rating [2]: 20 | Plant response rating, Flood, Sedge, Umbrella [3]: 100 | Plant response rating, Sedge, Umbrella [3, 11]: 85 | Plant response rating, Sedge, Umbrella [3, 12]: 100 | Sedge, Umbrella plant response rating [3]: 70 | Plant response rating, Pigweed [4, 13]: 100 | Pigweed plant response rating ([4]; Postemergence, 500 g ai/ha): 100 | Plant response rating, Pigweed [4, 14]: 100 | Plant response rating, Pigweed [4, 15]: 100 | Plant response rating, Morningglory [5, 13]: 70 | Morningglory plant response rating ([5]; Postemergence, 500 g ai/ha): 100 | Plant response rating, Morningglory [5, 14]: 0 | Plant response rating, Morningglory [5, 15]: 80 | Plant response rating, Crabgrass, Large [6, 13]: 70 | Crabgrass, Large plant response rating ([6]; Postemergence, 500 g ai/ha): 100 | Plant response rating, Crabgrass, Large [6, 14]: 70 | Plant response rating, Crabgrass, Large [6, 15]: 100 | Plant response rating, Foxtail, Giant [7, 13]: 70 | Foxtail, Giant plant response rating ([7]; Postemergence, 500 g ai/ha): 90 | Plant response rating, Foxtail, Giant [7, 14]: 10 | Plant response rating, Foxtail, Giant [7, 15]: 80 | Plant response rating, Corn (corn (Zea mays); [13]): 10 | Corn plant response rating (corn (Zea mays); Postemergence, 500 g ai/ha): 50 | Plant response rating, Corn (corn (Zea mays); [14]): 0 | Plant response rating, Corn (corn (Zea mays); [15]): 20 | Plant response rating, Wheat [8, 13]: 0 | Wheat plant response rating ([8]; Postemergence, 500 g ai/ha): 50 | Plant response rating, Wheat [8, 14]: 0 | Plant response rating, Wheat [8, 15]: 10 | Plant response rating, Barnyardgrass [9, 13]: 90 | Barnyardgrass plant response rating ([9]; Postemergence, 500 g ai/ha): 90 | Plant response rating, Barnyardgrass [9, 14]: 20 | Plant response rating, Barnyardgrass [9, 15]: 80 | Plant response rating, Velvetleaf [10, 13]: 100 | Velvetleaf plant response rating ([10]; Postemergence, 500 g ai/ha): 100 | Plant response rating, Velvetleaf [10, 14]: 50 | Plant response rating, Velvetleaf [10, 15]: 80

O=C1CCCC(O)=C1C(=O)c1cnc(-c2cc(F)cc(F)c2)n(-c2ccccc2)c1=O [Compound 161]
Plant response rating, Flood, Rice (rice (Oryza sativa)): 50 | Plant response rating, Rice (rice (Oryza sativa); [11]): 50 | Plant response rating, Rice (rice (Oryza sativa); [12]): 45 | Rice plant response rating (rice (Oryza sativa)): 25 | Plant response rating, Flood, Ducksalad [1]: 80 | Plant response rating, Ducksalad [1, 11]: 0 | Plant response rating, Ducksalad [1, 12]: 0 | Ducksalad plant response rating [1]: 0 | Plant response rating, Flood, Barnyardgrass [2]: 30 | Plant response rating, Barnyardgrass [2, 11]: 0 | Plant response rating, Barnyardgrass [2, 12]: 0 | Barnyardgrass plant response rating [2]: 0 | Plant response rating, Flood, Sedge, Umbrella [3]: 60 | Plant response rating, Sedge, Umbrella [3, 11]: 0 | Plant response rating, Sedge, Umbrella [3, 12]: 0 | Sedge, Umbrella plant response rating [3]: 0 | Plant response rating, Pigweed [4, 13]: 80 | Pigweed plant response rating ([4]; Postemergence, 500 g ai/ha): 100 | Plant response rating, Pigweed [4, 14]: 90 | Plant response rating, Pigweed [4, 15]: 100 | Plant response rating, Morningglory [5, 13]: 60 | Morningglory plant response rating ([5]; Postemergence, 500 g ai/ha): 100 | Plant response rating, Morningglory [5, 14]: 0 | Plant response rating, Morningglory [5, 15]: 40 | Plant response rating, Crabgrass, Large [6, 13]: 60 | Crabgrass, Large plant response rating ([6]; Postemergence, 500 g ai/ha): 90 | Plant response rating, Crabgrass, Large [6, 14]: 50 | Plant response rating, Crabgrass, Large [6, 15]: 90 | Plant response rating, Foxtail, Giant [7, 13]: 40 | Foxtail, Giant plant response rating ([7]; Postemergence, 500 g ai/ha): 90 | Plant response rating, Foxtail, Giant [7, 14]: 50 | Plant response rating, Foxtail, Giant [7, 15]: 80 | Plant response rating, Corn (corn (Zea mays); [13]): 0 | Corn plant response rating (corn (Zea mays); Postemergence, 500 g ai/ha): 10 | Plant response rating, Corn (corn (Zea mays); [14]): 0 | Plant response rating, Corn (corn (Zea mays); [15]): 0 | Plant response rating, Wheat [8, 13]: 0 | Wheat plant response rating ([8]; Postemergence, 500 g ai/ha): 0 | Plant response rating, Wheat [8, 14]: 0 | Plant response rating, Wheat [8, 15]: 0 | Plant response rating, Barnyardgrass [9, 13]: 30 | Barnyardgrass plant response rating ([9]; Postemergence, 500 g ai/ha): 90 | Plant response rating, Barnyardgrass [9, 14]: 10 | Plant response rating, Barnyardgrass [9, 15]: 90 | Plant response rating, Velvetleaf [10, 13]: 100 | Velvetleaf plant response rating ([10]; Postemergence, 500 g ai/ha): 100 | Plant response rating, Velvetleaf [10, 14]: 70 | Plant response rating, Velvetleaf [10, 15]: 90
